According to ChEMBL document CHEMBL5331046, “Disulfiram and dithiocarbamate analogues demonstrate promising antischistosomal effects” (Eur J Med Chem, 2022):
Calls of active or inactive are those of the source. The calls are words filed in the database; no cut-off is given here.

How the values were obtained:
Schistosoma mansoni [1] = test: Antischistosomal activity against Schistosoma mansoni couples assessed as worm motility at 100 uM treated for 72 hrs and measured at 144 hrs after drug wash-out by bright field microscopy; format: functional
Schistosoma mansoni [2] = test: Antischistosomal activity against Schistosoma mansoni infected in mouse assessed as decrease in granuloma formation; format: functional; design: scale not given: the % may be the effect or the level left
Schistosoma mansoni [3] = test: Antischistosomal activity against Schistosoma mansoni couples assessed as reduction in pairing stability at 25 to 100 uM treated for 72 hrs and measured at 144 to 192 hrs after drug wash-out by bright field microscopy; format: functional, organism-based; conditions: dose 25-100 µM
Schistosoma mansoni [4] = test: Antischistosomal activity against Schistosoma mansoni couples assessed as worm motility at 50 uM treated for 72 hrs and measured at 192 hrs after drug wash-out by bright field microscopy; format: functional
Schistosoma mansoni [5] = test: Antischistosomal activity against Schistosoma mansoni couples assessed as worm motility at 25 uM treated for 72 hrs and measured at 144 hrs after drug wash-out by bright field microscopy; format: functional
Schistosoma mansoni [6] = test: Antischistosomal activity against Schistosoma mansoni couples assessed as worm motility at 50 uM measured after 72 hrs by bright field microscopy; format: functional
Schistosoma mansoni [7] = test: Antischistosomal activity against Schistosoma mansoni couples assessed as worm motility at 100 uM treated for 72 hrs and measured at 192 hrs after drug wash-out by bright field microscopy; format: functional
Schistosoma mansoni [8] = test: Antischistosomal activity against Schistosoma mansoni infected in mouse assessed as mouse mortality; format: functional
Schistosoma mansoni [9] = test: Antischistosomal activity against Schistosoma mansoni couples assessed as worm motility at 100 uM measured after 72 hrs by bright field microscopy; format: functional
Schistosoma mansoni [10] = test: Antischistosomal activity against Schistosoma mansoni couples assessed as worm motility at 25 uM treated for 72 hrs and measured at 192 hrs after drug wash-out by bright field microscopy; format: functional
Schistosoma mansoni [11] = test: Antischistosomal activity against Schistosoma mansoni couples assessed as worm motility at 25 uM measured after 72 hrs by bright field microscopy; format: functional
Schistosoma mansoni [12] = test: Antischistosomal activity against Schistosoma mansoni couples assessed as worm motility at 50 uM treated for 72 hrs and measured at 144 hrs after drug wash-out by bright field microscopy; format: functional
Schistosoma mansoni [13] = test: Antischistosomal activity against Schistosoma mansoni couples assessed as tegument damage at <=10 uM measured upto 72 hrs by bright field microscopy; format: functional, organism-based
Schistosoma mansoni [14] = test: Antischistosomal activity against Schistosoma mansoni couples assessed as decrease in parasite motility at 15 uM measured upto 72 hrs by bright field microscopy; format: functional; design: scale not given: the % may be the effect or the level left
Schistosoma mansoni [15] = test: Antischistosomal activity against Schistosoma mansoni couples assessed as loss of internal structures at 10 uM measured upto 72 hrs by bright field microscopy; format: functional, organism-based
Schistosoma mansoni [16] = test: Antischistosomal activity against Schistosoma mansoni couples assessed as induction of phenotypes at 10 uM measured upto 72 hrs by bright field microscopy; format: functional, organism-based
Schistosoma mansoni [17] = test: Antischistosomal activity against Schistosoma mansoni couples assessed as decrease in pairing stability at 15 uM measured upto 72 hrs by bright field microscopy; format: functional; design: scale not given: the % may be the effect or the level left
Schistosoma mansoni [18] = test: Antischistosomal activity against Schistosoma mansoni couples assessed as reduction in worm motility measured up to 72 hrs by bright field microscopy; format: functional, organism-based
Schistosoma mansoni [19] = test: Antischistosomal activity against Schistosoma mansoni couples assessed as tegument damage at 10 uM measured upto 72 hrs by bright field microscopy; format: functional, organism-based
Schistosoma mansoni [20] = test: Antischistosomal activity against Schistosoma mansoni couples assessed as reduction in parasite motility at <=10 uM measured upto 72 hrs by bright field microscopy; format: functional; design: scale not given: the % may be the effect or the level left; conditions: up to 10 µM
Schistosoma mansoni [21] = test: Antischistosomal activity against Schistosoma mansoni couples assessed as gut dilatations at 10 uM measured upto 72 hrs by bright field microscopy; format: functional, organism-based
Schistosoma mansoni [22] = test: Antischistosomal activity against Schistosoma mansoni couples assessed as inhibition of eggs production at 15 uM measured upto 72 hrs by bright field microscopy; format: functional; design: scale not given: the % may be the effect or the level left
Schistosoma mansoni [23] = test: Antischistosomal activity against Schistosoma mansoni couples assessed as decrease in parasite motility at 10 uM measured upto 72 hrs by bright field microscopy; format: functional, organism-based
HepG2 = test: Cytotoxicity against human HepG2 cells assessed as reduction in cell vaibility at 100 uM by WST-1 assay; format: toxicity, cell-based; conditions: hepg2, 100 µM
Schistosoma mansoni [24] = test: Antischistosomal activity against Schistosoma mansoni couples assessed as reduction in pairing stability measured up to 72 hrs by bright field microscopy; format: functional, organism-based
LS174T = test: Cytotoxicity against human LS174T cells assessed as reduction in cell viability at 100 uM by WST-1 assay; format: toxicity, cell-based
Schistosoma mansoni [25] = test: Antischistosomal activity against Schistosoma mansoni couples assessed as gut dilatations at <=10 uM measured upto 72 hrs by bright field microscopy; format: functional, organism-based
Schistosoma mansoni [26] = test: Antischistosomal activity against Schistosoma mansoni couples assessed as decrease in parasite vitality at 15 uM measured upto 72 hrs by bright field microscopy; format: functional; design: scale not given: the % may be the effect or the level left
Schistosoma mansoni [27] = test: Antischistosomal activity against Schistosoma mansoni couples assessed as loss of internal structures at <=10 uM measured upto 72 hrs by bright field microscopy; format: functional, organism-based

In the case of `CCN(CC)C(=S)SSC(=S)N(CC)CC` [DISULFIRAM], the Activity (Schistosoma mansoni [1]) is reported as 71%, the Activity (Schistosoma mansoni [2]) is reported as 80% and the Activity (Schistosoma mansoni [3]) is reported as “inactive”. The Activity (Schistosoma mansoni [4]) was 84%, the Activity (Schistosoma mansoni [5]) was 73% and the Activity (Schistosoma mansoni [6]) was 62%. For the same compound, the Activity (Schistosoma mansoni [7]) was 76%, the Activity (Schistosoma mansoni [8]) was 60% and the Activity (Schistosoma mansoni [9]) was 56%. For the same compound, the Activity (Schistosoma mansoni [10]) was 67%, the Activity (Schistosoma mansoni [11]) was 69% and the Activity (Schistosoma mansoni [12]) was 75%.
With `CS(=O)(=O)N1CCN(C(=S)SCc2ccc([N+](=O)[O-])cc2)CC1` the Activity (Schistosoma mansoni [13]) was “inactive”, the Activity (Schistosoma mansoni [14]) was 50% and the Activity (Schistosoma mansoni [15]) was “Active”. The Activity (Schistosoma mansoni [16]) was “Active”, the Activity (Schistosoma mansoni [1]) was 24% and the Activity (Schistosoma mansoni [17]) was 20%. For the same compound, the EC50 (Schistosoma mansoni [18]) was 9.6 µM, the Activity (Schistosoma mansoni [19]) was “Active” and the Activity (Schistosoma mansoni [20]) was 50%. The Activity (Schistosoma mansoni [21]) was “Active”, the Activity (Schistosoma mansoni [22]) was 40% and the Activity (Schistosoma mansoni [23]) was “Active”. For the same compound, the Activity (Schistosoma mansoni [4]) was 28%, the Activity (HepG2) was “Non-Toxic” and the Activity (Schistosoma mansoni [5]) was 36%. The Activity (Schistosoma mansoni [6]) was 31%, the Activity (Schistosoma mansoni [7]) was 24% and the Activity (Schistosoma mansoni [9]) was 31%. The EC50 (Schistosoma mansoni [24]) was 9.2 µM, the Activity (LS174T) was “Non-Toxic” and the Activity (Schistosoma mansoni [25]) was “inactive”. The Activity (Schistosoma mansoni [10]) was 35%, the Activity (Schistosoma mansoni [11]) was 35% and the Activity (Schistosoma mansoni [12]) was 27%. For the same compound, the Activity (Schistosoma mansoni [26]) was 90% and the Activity (Schistosoma mansoni [27]) was “inactive”.
